From patent US20240366770A1, “DEGRADATION OF BRUTON'S TYROSINE KINASE (BTK) BY CONJUGATION OF BTK INHIBITORS WITH E3 LIGASE LIGAND AND METHODS OF USE” (BeiGene Switzerland GmbH, priority 2021, published 2024)
pIC50: −log10 of the molar value. Like-named read-outs stand apart in the source and are kept apart here.

Columns and labels:
[1] = test system: HEK-293 cells; assay: HEK-293 cytotoxicity detection (CellTiter-Glo); format: cell-based; settings: HEK-293 cells, 72 h incubation, CellTiter-Glo luminescence, IC50 of cell proliferation inhibition, read-out: HEK293
Method in brief: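 HEK-293 cells exposed 72 h to an 8-point, 4-fold dilution series (top 500× stock 5 mM in DMSO; 0.2% DMSO final). Viability by CellTiter-Glo luminescence after 10 min at room temperature; IC50 from four-parameter Hill fit of percent inhibition.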

[2] = biological target: T1, BTK (Homo sapiens, UniProt Q06187); assay: BTK degradation in TMD-8 cells (HTRF assay); format: cell-based; settings: 6 h treatment, IC50 (DC50) of BTK degradation
T1 construct: High control=Cell group with added DMSO and without compound, indicating microplate readings without BTK degradation; endogenous in cells; host or cells: TMD-8
T1 sequence (Q06187 whole entry): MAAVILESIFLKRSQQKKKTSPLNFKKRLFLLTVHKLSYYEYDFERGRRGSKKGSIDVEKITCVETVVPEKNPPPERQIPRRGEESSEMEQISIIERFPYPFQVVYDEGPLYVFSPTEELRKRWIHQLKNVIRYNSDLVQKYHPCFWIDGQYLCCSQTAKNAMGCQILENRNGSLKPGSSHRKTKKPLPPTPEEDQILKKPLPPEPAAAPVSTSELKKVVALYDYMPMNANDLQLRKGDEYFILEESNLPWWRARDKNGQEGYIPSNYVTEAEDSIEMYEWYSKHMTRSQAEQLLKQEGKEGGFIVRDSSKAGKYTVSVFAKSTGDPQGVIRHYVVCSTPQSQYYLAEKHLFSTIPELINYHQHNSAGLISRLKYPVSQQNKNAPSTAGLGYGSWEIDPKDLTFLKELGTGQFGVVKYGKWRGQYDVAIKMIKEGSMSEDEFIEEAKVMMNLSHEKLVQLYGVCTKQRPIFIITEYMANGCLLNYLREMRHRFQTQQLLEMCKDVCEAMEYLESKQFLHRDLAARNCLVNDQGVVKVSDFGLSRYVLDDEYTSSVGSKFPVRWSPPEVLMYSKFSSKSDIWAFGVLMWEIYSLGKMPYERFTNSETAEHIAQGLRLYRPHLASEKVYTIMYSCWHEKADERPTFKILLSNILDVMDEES
Method in brief: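 TMD-8 cells were exposed for 6 h to 8 compound doses (6-fold serial dilution, 0.2% DMSO). Lysed cells were incubated overnight at room temperature with HTRF antibodies and read at 665/620 nm. DC50 came from four-parameter fitting of % inhibition versus concentration.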

Row | SMILES | pIC50 ([1]; Homo sapiens) | DC50 [2] | pIC50 [1]
1 | Cc1cc(-c2ncnc3[nH]c4cc(N5CCC6(CC5)CCN(C5CC(c7ccc([C@H]8CCC(=O)NC8=O)cc7)C5)C6)ccc4c23)ccc1[C@@H](C)NC(=O)c1nc(C(C)(C)C)no1 (stereo partly drawn) [Example 102, 3-(tert-butyl)-N—((R)-1-(4-(7-(2-(3-(4-((R)-2,6-dioxopiperidin-3-yl)phenyl)cyclobutyl)-2,8-diazaspiro[4.5]decan-8-yl)-9H-pyrimido[4,5-b]indol-4-yl)-2-methylphenyl)ethyl)-1,2,4-oxadiazole-5-carboxamide] | 5.99 | 4.88 nM | –
2 | COc1cc2c(cc1N1CCN(C3CC(c4ccc([C@H]5CCC(=O)NC5=O)cc4)C3)CC1)[nH]c1ncnc(-c3ccc([C@@H](C)NC(=O)c4noc(C(C)(C)C)n4)c(C)c3F)c12 (stereo partly drawn) [Example 60, 5-(tert-butyl)-N—((R)-1-(4-(7-(4-(3-(4-((R)-2,6-dioxopiperidin-3-yl)phenyl)cyclobutyl)piperazin-1-yl)-6-methoxy-9H-pyrimido[4,5-b]indol-4-yl)-3-fluoro-2-methylphenyl)ethyl)-1,2,4-oxadiazole-3-carboxamide] | < 5.00 | 4.97 nM | –
3 | Cc1cc(-c2ncnc3[nH]c4cc(N5CCN(Cc6ccc7c(c6)N(C6CCC(=O)NC6=O)C(=O)C76CC6)CC5)ccc4c23)c(F)cc1[C@@H](C)NC(=O)c1noc(C(C)(C)C)n1 (stereo partly drawn) [Example 91, 5-(tert-butyl)-N-((1R)-1-(4-(7-(4-((1′-(2,6-dioxopiperidin-3-yl)-2′-oxospiro[cyclopropane-1,3′-indolin]-6′-yl)methyl)piperazin-1-yl)-9H-pyrimido[4,5-b]indol-4-yl)-5-fluoro-2-methylphenyl)ethyl)-1,2,4-oxadiazole-3-carboxamide] | < 5.00 | > 2000 nM | –
4 | Cc1cc(-c2ncnc3[nH]c4cc(N5CCN(C6CC(c7ccc([C@@H]8CCC(=O)NC8=O)cc7)C6)CC5)ccc4c23)c(F)cc1[C@@H](C)NC(=O)c1nc(C(C)(C)C)no1 (stereo partly drawn) [Example 25, 3-(tert-butyl)-N—((R)-1-(4-(7-(4-(3-(4-((S)-2,6-dioxopiperidin-3-yl)phenyl)cyclobutyl)piperazin-1-yl)-9H-pyrimido[4,5-b]indol-4-yl)-5-fluoro-2-methylphenyl)ethyl)-1,2,4-oxadiazole-5-carboxamide] | < 5.00 | 0.872 nM | –
5 | CN1CCN(CC2CCN(c3ncnc4[nH]c5cc(N6CCN(CC7CCN(c8ccc(N9CCC(=O)NC9=O)cc8)CC7)CC6)ccc5c34)CC2)C1=O [Example 81, 1-(4-(4-((4-(4-(4-((3-methyl-2-oxoimidazolidin-1-yl)methyl)piperidin-1-yl)-9H-pyrimido[4,5-b]indol-7-yl)piperazin-1-yl)methyl)piperidin-1-yl)phenyl)dihydropyrimidine-2,4(1H,3H)-dione] | < 5.00 | > 2000 nM | –
6 | COc1cc2c(cc1N1CCN(Cc3ccc4c(c3)n(C)c(=O)n4C3CCC(=O)NC3=O)CC1)[nH]c1ncnc(-c3ccc([C@@H](C)NC(=O)c4nc(C(C)(C)C)no4)c(C)c3F)c12 (stereo partly drawn) [Example 71, 3-(tert-butyl)-N-((1R)-1-(4-(7-(4-((1-(2,6-dioxopiperidin-3-yl)-3-methyl-2-oxo-2,3-dihydro-1H-benzo[d]imidazol-5-yl)methyl)piperazin-1-yl)-6-methoxy-9H-pyrimido[4,5-b]indol-4-yl)-3-fluoro-2-methylphenyl)ethyl)-1,2,4-oxadiazole-5-carboxamide] | < 5.00 | 9.24 nM | –
7 | COc1cc2c(cc1N1CCN(C3CC(c4ccc([C@@H]5CCC(=O)NC5=O)cc4)C3)CC1)[nH]c1ncnc(-c3ccc([C@@H](C)NC(=O)c4noc(C(C)(C)C)n4)c(C)c3F)c12 (stereo partly drawn) [Example 59, 5-(tert-butyl)-N—((R)-1-(4-(7-(4-(3-(4-((S)-2,6-dioxopiperidin-3-yl)phenyl)cyclobutyl)piperazin-1-yl)-6-methoxy-9H-pyrimido[4,5-b]indol-4-yl)-3-fluoro-2-methylphenyl)ethyl)-1,2,4-oxadiazole-3-carboxamide] | < 5.00 | 4.55 nM | –
8 | COc1cc2c(cc1N1CCN(C3CC(c4ccc(N[C@H]5CCC(=O)NC5=O)cc4)C3)CC1)[nH]c1ncnc(-c3cc(C)c([C@@H](C)NC(=O)c4nc(C5(C)CC5)no4)cc3F)c12 (stereo partly drawn) [Example 94, N—((R)-1-(4-(7-(4-((1S,3s)-3-(4-(((R)-2,6-dioxopiperidin-3-yl)amino)phenyl)cyclobutyl)piperazin-1-yl)-6-methoxy-9H-pyrimido[4,5-b]indol-4-yl)-5-fluoro-2-methylphenyl)ethyl)-3-(1-methylcyclopropyl)-1,2,4-oxadiazole-5-carboxamide] | – | 0.768 nM | 6.38
9 | Cc1c([C@@H](C)NC(=O)c2nc(C3(C)CC3)no2)ccc(-c2ncnc3[nH]c4cc(N5CCN(CC6CCN(c7ccc(N8CCC(=O)NC8=O)cc7)CC6)CC5)ccc4c23)c1F [Example 64, (R)—N-(1-(4-(7-(4-((1-(4-(2,4-dioxotetrahydropyrimidin-1(2H)-yl)phenyl)piperidin-4-yl)methyl)piperazin-1-yl)-9H-pyrimido[4,5-b]indol-4-yl)-3-fluoro-2-methylphenyl)ethyl)-3-(1-methylcyclopropyl)-1,2,4-oxadiazole-5-carboxamide] | < 5.00 | 3.02 nM | –
10 | COc1cc2c(cc1N1CCN(CC3CCN(c4ccc(N5CCC(=O)NC5=O)cc4)CC3)CC1)[nH]c1ncnc(-c3cc(C)c([C@@H](C)NC(=O)c4nc(C(C)(C)C)no4)cc3F)c12 [Example 62, (R)-3-(tert-butyl)-N-(1-(4-(7-(4-((1-(4-(2,4-dioxotetrahydropyrimidin-1(2H)-yl)phenyl)piperidin-4-yl)methyl)piperazin-1-yl)-6-methoxy-9H-pyrimido[4,5-b]indol-4-yl)-5-fluoro-2-methylphenyl)ethyl)-1,2,4-oxadiazole-5-carboxamide] | < 5.00 | 0.414 nM | –
11 | Cc1c([C@@H](C)NC(=O)c2noc(C(C)(C)C)n2)ccc(-c2ncnc3[nH]c4cc(N5CCN(Cc6ccc7c(c6)N(C6CCC(=O)NC6=O)C(=O)C7(C)C)CC5)ccc4c23)c1F (stereo partly drawn) [Example 85, 5-(tert-butyl)-N-((1R)-1-(4-(7-(4-((1-(2,6-dioxopiperidin-3-yl)-3,3-dimethyl-2-oxoindolin-6-yl)methyl)piperazin-1-yl)-9H-pyrimido[4,5-b]indol-4-yl)-3-fluoro-2-methylphenyl)ethyl)-1,2,4-oxadiazole-3-carboxamide] | < 5.00 | > 2000 nM | –
12 | Cc1cc(-c2ncnc3[nH]c4cc(N5CCC6(CCN(CC7CCN(c8ccc(N9CCC(=O)NC9=O)cc8)CC7)C6)CC5)ccc4c23)ccc1[C@@H](C)NC(=O)c1nc(C(C)(C)C)no1 [Example 100, (R)-3-(tert-butyl)-N-(1-(4-(7-(2-((1-(4-(2,4-dioxotetrahydropyrimidin-1(2H)-yl)phenyl)piperidin-4-yl)methyl)-2,8-diazaspiro[4.5]decan-8-yl)-9H-pyrimido[4,5-b]indol-4-yl)-2-methylphenyl)ethyl)-1,2,4-oxadiazole-5-carboxamide] | 5.47 | 1.02 nM | –
13 | Cc1cc(-c2ncnc3[nH]c4cc(C5CCN(CC6CCN(c7ccc(N8CCC(=O)NC8=O)cc7)CC6)C5)ccc4c23)ccc1[C@@H](C)NC(=O)c1nc(C(C)(C)C)no1 (stereo partly drawn) [Example 12, 3-(tert-butyl)-N-((1R)-1-(4-(7-(1-((1-(4-(2,4-dioxotetrahydropyrimidin-1(2H)-yl)phenyl)piperidin-4-yl)methyl)pyrrolidin-3-yl)-9H-pyrimido[4,5-b]indol-4-yl)-2-methylphenyl)ethyl)-1,2,4-oxadiazole-5-carboxamide] | 5.44 | 0.613 nM | –
14 | Cc1cc(-c2ncnc3[nH]c4cc(N5CCN(CC6CCN(c7ccc(N8CCC(=O)NC8=O)cc7)CC6)CC5)ccc4c23)c(F)cc1[C@@H](C)NC(=O)c1nc(C2(C)CC2)no1 [Example 89, (R)—N-(1-(4-(7-(4-((1-(4-(2,4-dioxotetrahydropyrimidin-1(2H)-yl)phenyl)piperidin-4-yl)methyl)piperazin-1-yl)-9H-pyrimido[4,5-b]indol-4-yl)-5-fluoro-2-methylphenyl)ethyl)-3-(1-methylcyclopropyl)-1,2,4-oxadiazole-5-carboxamide] | < 5.00 | 0.55 nM | –
15 | Cc1cc(-c2ncnc3[nH]c4cc(N5CCN(CC6CCN(c7ccc(N8CCC(=O)NC8=O)cc7)CC6)CC5)ccc4c23)ccc1[C@@H](C)NC(=O)c1nc(C2(C)CC2)no1 [Example 35, (R)—N-(1-(4-(7-(4-((1-(4-(2,4-dioxotetrahydropyrimidin-1(2H)-yl)phenyl)piperidin-4-yl)methyl)piperazin-1-yl)-9H-pyrimido[4,5-b]indol-4-yl)-2-methylphenyl)ethyl)-3-(1-methylcyclopropyl)-1,2,4-oxadiazole-5-carboxamide] | < 5.00 | 0.15 nM | –
16 | Cc1cc(-c2ncnc3[nH]c4cc(N5CCN([C@H]6C[C@@H](c7ccc(N[C@@H]8CCC(=O)NC8=O)cc7)C6)CC5)ccc4c23)ccc1[C@@H](C)NC(=O)c1nc(C2(C)CC2)no1 [Example 118, N—((R)-1-(4-(7-(4-((1S,3s)-3-(4-(((R)-2,6-dioxopiperidin-3-yl)amino)phenyl)cyclobutyl)piperazin-1-yl)-9H-pyrimido[4,5-b]indol-4-yl)-2-methylphenyl)ethyl)-3-(1-methylcyclopropyl)-1,2,4-oxadiazole-5-carboxamide] | < 5.00 | 1.73 nM | –
